One experiment deals with female Aedes aegypti. As to the kind of experiment: Knock down (KD) after forced contact with treated muslin cloth (insecticidal properties). Type of experiment: in vivo. Particulars: 2 min forced exposure to treated cloth. The method, then: The minimum effective dosage (MED) for repellency of 99% of mosquitoes was determined by wearing treated muslin cloth with varying concentrations of the chemical. At a surface concentration of 0.011 mg/cm^2, nearly all mosquitoes are repelled from the surface. The insecticidal properties required a much higher concentration of 2. All tests were conducted by forcing mosquitoes (5 per replicate×5 replicates) into contact with treated muslin cloth.

The test system of another experiment is Ae. aegypti. Briefly: MED of varying molar ratios of 2 and DEET (synergistic activity). Type of experiment: in vivo, Aedes aegypti. To be noted: Table 6, molar ratio 2:DEET; for Ae. aegypti Minimum Effective Dosage, Average: mean of 3 volunteers; for Ae. aegypti Minimum Effective Dosage, M4: subject M4; for Ae. aegypti Minimum Effective Dosage, M4 / Ae. aegypti Minimum Effective Dosage, M5 / Ae. aegypti Minimum Effective Dosage, M8: highest dose 4.0 mg/cm2; for Ae. aegypti Minimum Effective Dosage, M5: subject M5; for Ae. aegypti Minimum Effective Dosage, M8: subject M8. The protocol: Minimum Effective Dosage (MED) Test: The MED bioassays on treated cloth were a method of screening to determine the minimum amount of a repellent needed to prevent bites. Experimental compounds were prepared in solution by combining 0.15 g of experimental chemical with 2 mL of acetone in a 7.1 mL screwtop glass vial. […] The standard N,N-diethyl-3-methylbenzamide (DEET) was also tested at the same concentration levels to serve as a control and a comparison for relative repellency. A 50 cm^2 (5 cm×10 cm) patch of muslin cloth was rolled lengthwise and placed into each of the glass vials and scaled with a screwtop so it soaked up the solution. Just prior to the experiment, the pieces of treated cloth were removed from the vials, affixed to card stock tabs (5 cm×3 cm) with staples, and hung with masking tape on a rack to dry and allow acetone to evaporate. Volunteers wore a latex glove over their hands, a nylon stocking over their arm, and then wrapped a plastic Velcro-sealed sleeve over their entire forearm with a 32 cm^2 (4 cm×8 cm) window cut-out to allow mosquitoes to bite through. The nylon stocking acted as a barrier between the dried cloth and the skin, an additional precaution with experimental compounds. Dried cloth patches were stretched across the window in the plastic sleeve and held in place with masking tape. Volunteers placed their sleeve-covered arms into a screened cage for a one minute period with approximately 500 female Ae. aegypti mosquitoes that had been preselected for host-seeking behavior using a draw box (Posey, K. H., and C. E. Schreck, Mosquito News, 41: 566-568 (1981)). […] The MED recorded was the lowest passing concentration level tested for the experimental compound. […] All human volunteers in the study provided informed consent to participate of a protocol approved by the University of Florida Human Use Institutional Review Board (IRB #636-2005).
Compound 2 was also evaluated with DEET for synergistic activity. Test samples were prepared at varying molar ratios of DEET: 2 (1:0-1:[…]) and the MED values were evaluated (Table 6).

Regarding `CC1(C)C=Cc2c(CO)cccc2O1` [Compound 2], the “KD100 @ 1 h, surface concentration” value in the experiment with female Aedes aegypti (knock down counted after 1 h) is 15.38 mg/cm^2. In addition, the “KD100 @ 5 h, surface concentration” value with female Aedes aegypti (knock down counted after 5 h) is 7.69 mg/cm^2. The “KD100 @ 8 h, surface concentration” value in the experiment with female Aedes aegypti (knock down counted after 8 h) amounted to 0.96 mg/cm^2. In the experiment on Ae. aegypti, the “Ae. aegypti Minimum Effective Dosage, Average” value turned out to be 0.0260 mg/cm^2; the “Ae. aegypti Minimum Effective Dosage, M4” value came to 0.0156 mg/cm^2; the “Ae. aegypti Minimum Effective Dosage, M5” value is on record as 0.0313 mg/cm^2; the “Ae. aegypti Minimum Effective Dosage, M8” value worked out at 0.0313 mg/cm^2.

For `CCN(CC)C(=O)c1cccc(C)c1` [DEET, N,N-diethyl-3-methylbenzamide, reference compound], in the experiment with Ae. aegypti, the “Ae. aegypti Minimum Effective Dosage, Average” value is 0.0313 mg/cm^2; the “Ae. aegypti Minimum Effective Dosage, M4” value was 0.0313 mg/cm^2; the “Ae. aegypti Minimum Effective Dosage, M5” value is listed as 0.0313 mg/cm^2; the “Ae. aegypti Minimum Effective Dosage, M8” value is 0.0313 mg/cm^2.
